{"source": "patent US20140045807A2", "about": "“THE USE OF 3-METHOXY-PREGNENOLONE FOR THE PREPARATION OF A DRUG FOR TREATING A TRAUMATIC BRAIN INJURY” (priority 2004, published 2014)", "key": {"[1]": {"biological_target": "Mineralocorticoid Receptor (MR) (Rattus norvegicus, UniProt P22199)", "sequence (P22199 whole entry)": "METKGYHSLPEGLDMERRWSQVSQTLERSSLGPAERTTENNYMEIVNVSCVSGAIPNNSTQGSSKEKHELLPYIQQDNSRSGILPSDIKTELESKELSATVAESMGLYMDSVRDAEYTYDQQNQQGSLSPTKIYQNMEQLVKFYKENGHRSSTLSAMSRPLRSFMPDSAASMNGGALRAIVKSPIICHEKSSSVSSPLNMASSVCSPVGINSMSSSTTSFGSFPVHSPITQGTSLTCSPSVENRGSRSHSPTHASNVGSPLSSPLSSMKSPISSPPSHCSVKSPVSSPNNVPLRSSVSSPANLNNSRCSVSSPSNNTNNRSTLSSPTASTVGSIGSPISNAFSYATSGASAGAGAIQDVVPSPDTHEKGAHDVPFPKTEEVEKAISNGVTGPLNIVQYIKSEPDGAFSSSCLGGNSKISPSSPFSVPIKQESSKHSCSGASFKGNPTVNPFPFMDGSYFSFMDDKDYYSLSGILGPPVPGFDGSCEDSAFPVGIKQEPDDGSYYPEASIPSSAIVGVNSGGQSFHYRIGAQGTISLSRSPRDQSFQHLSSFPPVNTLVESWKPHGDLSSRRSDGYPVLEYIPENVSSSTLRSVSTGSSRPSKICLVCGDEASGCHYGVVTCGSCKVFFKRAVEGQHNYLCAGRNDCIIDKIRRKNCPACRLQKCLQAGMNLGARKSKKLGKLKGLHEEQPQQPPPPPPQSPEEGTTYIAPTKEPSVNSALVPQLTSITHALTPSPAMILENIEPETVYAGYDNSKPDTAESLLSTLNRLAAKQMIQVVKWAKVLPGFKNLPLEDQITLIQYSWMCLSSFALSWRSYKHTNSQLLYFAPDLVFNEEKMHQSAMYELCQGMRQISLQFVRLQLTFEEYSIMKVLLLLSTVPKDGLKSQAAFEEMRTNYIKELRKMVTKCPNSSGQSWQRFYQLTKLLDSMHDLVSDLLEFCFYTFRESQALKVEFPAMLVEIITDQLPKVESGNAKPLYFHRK", "assay": "Radioligand binding assay, MR", "conditions": "MAP4343 10 μM; 4.5 nM [^3H] D-Aldosterone; Wistar Rat kidney", "protocol": "(§1) Binding affinity of 3-methoxy-PREG (MAP4343) for receptors of steroid hormones was evaluated using radioligand binding assays."}, "[2]": {"biological_target": "Glucorticoid Receptor (GR) (Homo sapiens, UniProt P04150)", "sequence (P04150 whole entry)": "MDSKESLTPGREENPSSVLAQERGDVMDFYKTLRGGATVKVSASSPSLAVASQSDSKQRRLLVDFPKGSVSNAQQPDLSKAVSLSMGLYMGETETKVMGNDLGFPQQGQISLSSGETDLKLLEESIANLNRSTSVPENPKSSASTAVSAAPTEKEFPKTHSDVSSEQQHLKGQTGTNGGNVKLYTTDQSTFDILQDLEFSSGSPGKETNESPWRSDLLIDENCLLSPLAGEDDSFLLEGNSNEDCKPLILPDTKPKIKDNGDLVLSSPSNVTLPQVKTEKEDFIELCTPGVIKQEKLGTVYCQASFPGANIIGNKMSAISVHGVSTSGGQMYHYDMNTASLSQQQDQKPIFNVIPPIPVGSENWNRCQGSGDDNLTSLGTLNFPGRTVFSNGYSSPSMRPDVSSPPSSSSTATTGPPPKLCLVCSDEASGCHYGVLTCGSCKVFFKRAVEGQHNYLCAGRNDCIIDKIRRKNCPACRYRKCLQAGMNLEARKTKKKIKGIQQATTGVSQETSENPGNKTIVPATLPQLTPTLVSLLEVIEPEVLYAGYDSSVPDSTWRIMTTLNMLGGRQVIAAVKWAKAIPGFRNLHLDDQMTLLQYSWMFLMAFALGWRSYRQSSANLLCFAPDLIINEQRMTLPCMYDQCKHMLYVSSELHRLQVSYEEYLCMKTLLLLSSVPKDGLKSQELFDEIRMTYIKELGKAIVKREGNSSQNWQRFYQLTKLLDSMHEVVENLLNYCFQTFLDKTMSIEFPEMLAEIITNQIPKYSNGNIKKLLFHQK", "assay": "Radioligand binding assay, GR", "conditions": "MAP4343 10 μM; 3 nM [^3H] Dexamethasone; Human HeLa S3 cells", "protocol": "as §1"}, "CCI-injured animals": {"test_system": "CCI-injured animals", "assay": "Histological analysis of the hippocampus size after CCI", "assay_type": "in vivo, rat", "conditions": "10 mg/kg and 20 mg/kg, first injection 2 h after TBI, day 35", "protocol": "FIG. 18: Size of the hippocampus of CCI-injured animals, receiving the first injection of MAP4343 (or vehicle) 2 h after TBI. Data are expressed in percentage of the non-injured hippocampus of Dose 0 (vehicle) animals. ***: p<0.001 Dose 0 injured vs non-injured hippocampus; $: p<0.05 vs Dose 0 injured hippocampus.\nCCI was performed with an electromagnetic impact device as described (MyNeurolab, St. Louis, Mo.; Brody et al. 2007). Anesthesized rats were subjected to a single right lateral CCI, with the following parameters: impact centered 4.0 mm anterior to lambda and 4.5 mm […] of midline, within the craniotomy of the animal. The impact was set at a velocity of 4 m/s with a sustained depression of 200 ms, using a 5.0 mm tip.\nFrozen sections were stained with cresyl violet. For each section analyzed, the size of the hippocampus was determined by first outlining all remaining tissue of each section taken at 500 μm intervals through the lesion (right hemisphere) or contra lateral hemisphere, thus providing a total tissue area (mm2) of the two hemispheres for each section. Then, the areas of sections were summed per hemisphere."}, "PC12 cells": {"test_system": "PC12 cells", "assay": "Retraction of neurites induced by nocodazole", "assay_type": "cell-based, rat", "conditions": "pretreated one hour at 30 μM, nocodazole 15 minutes", "description": "FIG. 5: Retraction of neurites (neurites) induced by nocodazole.\nNocodazole is a microtubule depolymerizing agent. Its addition to PC12 cell cultures, differentiated in the presence of NGF, causes neurites to retract as a result of the depolymerization of their microtubules."}, "PSD95": {"test_system": "PSD95", "assay": "Western blot of PSD95 in cortex and hippocampus after CCI", "assay_type": "in vivo, rat", "conditions": "20 mg/kg, first injection 2 h post-trauma, day 35, ipsilateral injured cortex and hippocampus, contralateral cortex", "protocol": "FIG. 20: PSD-95 expression, 35 days after TBI, in the left-uninjured and right-injured hemispheres (A: cortex and B: hippocampus) of CCI-injured animals, receiving either vehicle (D0) or MAP4343 (D1: 10 mg/kg and D2:20 mg/kg), 2 h after injury.\nSamples were analyzed by Western-blot at day 35 post-trauma (D35) to evaluate the effects of MAP4343 on: MAP2 (the target of MAP4343 and a modulator of microtubule function), the post-synaptic markers PSD95 and spinophilin, the pre-synaptic marker synaptophysin, and the axonal growth/integrity marker GAP43.\nWestern blot was performed on cortex and hippocampus of TBI-injured animals receiving the first injection of MAP4343 (at 10 mg/kg or 20 mg/kg) or vehicle (sesame oil) 2 h after injury.\nThe expression level of various neuronal brain markers of plasticity was measured at day 35 post-trauma by western-blots in the cortex and hippocampus of left uninjured and right injured cerebral hemispheres of CCI traumatized animals receiving either vehicle (sesame oil, CCI-D0) or 3-methoxy-PREG (MAP4343) at 10 mg/kg (CCI-D1) or 20 mg/kg (CCI-D2), with first MAP4343 injection 2 h post-trauma."}, "[3]": {"biological_target": "T1, human progesterone receptor(PR) (Homo sapiens, UniProt P06401)", "T1 construct": "expressed in transfected cells; host or cells: HEK293T", "T1 sequence (P06401 1-933)": "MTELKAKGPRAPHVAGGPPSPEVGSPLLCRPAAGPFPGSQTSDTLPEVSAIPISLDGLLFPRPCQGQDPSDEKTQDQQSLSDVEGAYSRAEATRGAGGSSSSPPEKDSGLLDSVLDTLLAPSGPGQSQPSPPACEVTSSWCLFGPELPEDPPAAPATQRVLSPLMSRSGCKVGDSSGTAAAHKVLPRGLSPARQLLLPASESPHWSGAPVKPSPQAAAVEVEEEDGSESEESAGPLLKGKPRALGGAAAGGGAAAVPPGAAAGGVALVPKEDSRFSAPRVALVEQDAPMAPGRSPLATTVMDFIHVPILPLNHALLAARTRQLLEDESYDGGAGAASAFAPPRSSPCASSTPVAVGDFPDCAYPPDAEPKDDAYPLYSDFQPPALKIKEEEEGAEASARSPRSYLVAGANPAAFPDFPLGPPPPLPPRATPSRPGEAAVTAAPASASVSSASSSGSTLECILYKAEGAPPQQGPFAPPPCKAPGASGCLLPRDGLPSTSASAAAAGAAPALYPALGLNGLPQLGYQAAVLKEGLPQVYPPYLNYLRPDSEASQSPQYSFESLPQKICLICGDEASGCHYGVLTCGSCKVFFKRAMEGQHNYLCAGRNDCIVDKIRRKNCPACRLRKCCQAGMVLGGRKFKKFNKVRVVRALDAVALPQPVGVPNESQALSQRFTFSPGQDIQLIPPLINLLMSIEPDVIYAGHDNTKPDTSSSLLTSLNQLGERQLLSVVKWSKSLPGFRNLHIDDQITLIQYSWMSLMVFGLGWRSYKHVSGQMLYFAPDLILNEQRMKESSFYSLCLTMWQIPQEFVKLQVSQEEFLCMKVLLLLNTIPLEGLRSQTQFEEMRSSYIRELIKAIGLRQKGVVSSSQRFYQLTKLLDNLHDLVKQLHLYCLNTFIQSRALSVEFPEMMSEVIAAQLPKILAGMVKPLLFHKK", "assay": "Test of progesterone receptor antagonist activity (luciferase transactivation, HEK293T)", "assay_type": "cell-based", "conditions": "with progesterone (1 nM), increasing amounts", "protocol": "The main experimental setting used is the following: HEK293T cells were transiently transfected, using calcium phosphate precipitation technology, with expression vectors pSG5hPR (which permits expression of human progesterone receptor(PR)), pFC31-luc (contains the luciferase gene under the control of the MMTV promoter, which is in turn activated by binding of a progestin to progesterone receptor) and pcbetagal (which permits expression of betagalactosidase), and cultured during 24 hours with increasing amounts of various compositions: • 1. […] Test of progesterone receptor […] activity: transfected cells were cultured with progesterone (1 nM) and increasing amounts of RU486 (a well-known progesterone receptor antagonist) or 3-methoxy-pregnenolone. • With this setting, a compound with progesterone receptor antagonist activity competes with progesterone for the occupation of progesterone receptor and results in a progressive loss of transactivation activity when the amount of this compound is increased compared to progesterone."}}}
{"smiles": "CO[C@H]1CC[C@@]2(C)C(=CC[C@H]3[C@@H]4CC[C@H](C(C)=O)[C@@]4(C)CC[C@@H]32)C1", "note": "[3-methoxy-PREG, 3β-methoxy-pregna-5-ene-20-one]", "values": [{"measurement": "% inhibition of specific binding", "setting": "[1]", "result": "< 25", "unit": "%"}, {"measurement": "% inhibition of specific binding", "setting": "[2]", "result": "< 25", "unit": "%"}, {"measurement": "size of the injured hippocampus", "setting": "CCI-injured animals", "result": "significantly increases the size of the injured hippocampus"}, {"measurement": "resistance of neurites to nocodazole", "setting": "PC12 cells", "result": "makes the neurites resistant to nocodazole"}, {"measurement": "PSD95 expression", "setting": "PSD95", "result": "increase in PSD95 expression"}, {"measurement": "progesterone receptor antagonist activity", "setting": "[3]", "result": "weak progesterone receptor antagonist"}]}
